The values below are quoted from earlier work in patent US6949538B2, “Compounds, compositions, and methods” (Cytokinetics, Inc., priority 2002, dated 2005).

What is called GI50 is the concentration giving 50% growth inhibition.

For the data set, the system named is A549 cells. The settings on record: data provided by National Cancer Institute, Developmental Therapeutic Program.
Take `O=c1[nH]cc(F)c(=O)[nH]1` [5-fluorouracil]: the GI50 was 1000 nM. `COc1cccc2c1C(=O)c1c(O)c3c(c(O)c1C2=O)C[C@@](O)(C(=O)CO)C[C@@H]3O[C@H]1C[C@H](N)[C@H](O)[C@H](C)O1` [doxorubicin]: the GI50 was 63 nM. Take `NC(=O)NO` [hydroxyurea]: the GI50 was 500000 nM. For `CC(=O)O[C@H]1C(=O)[C@@]2(C)[C@H]([C@H](OC(=O)c3ccccc3)[C@]3(O)C[C@H](OC(=O)[C@H](O)[C@@H](NC(=O)c4ccccc4)c4ccccc4)C(C)=C1C3(C)C)[C@]1(OC(C)=O)CO[C@@H]1C[C@@H]2O` [paclitaxel], the GI50 was 4 nM.
